For one series, the system named is PDE4. Nature of the series: Inhibition of PDE4 activity (method of Bauer and Schwabe, adapted to microtiter plates). Type of series: biochemical. Conditions: inhibitory concentration as −log IC50 (mol/l). The procedure:
The activity test was carried out according to the method of Bauer and Schwabe, which was adapted to microtiter plates (Naunyn-Schmiedeberg's Arch. Pharmacol. 1980, 311, 193-198). The PDE reaction takes place in the first step here. In a second step, the resulting 5′-nucleotide is cleaved by a 5′-nucleotidase of the snake venom of Crotalus atrox to the uncharged nucleoside. In the third step, the nucleoside is separated from the remaining charged substrate on ion-exchange columns. The columns are eluted directly into minivials, into which 2 ml of scintillator fluid are additionally added, for counting using 2 ml of 30 mM ammonium formate (pH 6.0).
The inhibitory values determined for the compounds according to the invention [inhibitory concentration as −log Ic50 (mol/l)] follow from the following Table A, in which the numbers of the compounds correspond to the numbers of the examples.

By melting point is commonly meant the temperature, or range, at which the solid turns liquid. Consider `CCOc1cc2c(cc1OC)C(c1ccc(CCl)cc1)=N[C@H]1CCCC[C@@H]21` (relative stereo) [Compound 19, cis-6-(4-Chloromethylphenyl)-9-ethoxy-8-methoxy-1,2,3,4,4a,10b-hexahydrophenanthridine], for which the melting point was in the range of 151 to 153 °C. Also, the “−log IC50, inhibition of the PDE4 activity” value (shortened to “−log IC50, inhibition”) in the series with PDE4 stood at 8.59.
On the same counts, the results for `COc1cc2c(cc1OC)C1CCCCC1N=C2c1cccc(C(=O)N2CCCCC2)c1` (single isomer, unassigned; (-)) [Compound 17, (−)-cis-8,9-Dimethoxy-[3-(piperidin-1-ylcarbonyl)phenyl]-1,2,3,4,4a,10b-hexahydrophenanthridine] are 182 to 185 °C and 8.13.
For `CCOc1cc2c(cc1OC)C(c1ccc(OCC)c(OCC3CC3)c1)=NC1CCCCC21` (single isomer, unassigned; (-)) [Compound 39, (−)-cis-9-Ethoxy-8-methoxy-6-[(3-cyclopropylmethoxy-4-ethoxy)phenyl]-1,2,3,4,4a,10b-hexahydrophenanthridine], the melting point was in the range of 102 to 105 °C. Further, the “−log IC50, inhibition” value in the series with PDE4 stood at 8.87.
In the case of `COc1cc2c(cc1OC)C1CCCCC1N=C2c1ccc(OC)c(N2C(=O)CCC2=O)c1` (single isomer, unassigned; (-)) [Compound 48, (−)-cis-8,9-Dimethoxy-6-{[3-(2,5-dioxopyrrolidin-1-yl)-4-methoxy]phenyl}-1,2,3,4,4a,10b-hexahydrophenanthridine], the melting point lay in the range of 168 to 177 °C. Besides, in the series on PDE4, the “−log IC50, inhibition” value stood at 7.67.
On the same counts, the results for `COc1cc2c(cc1OC)[C@@H]1CCCC[C@@H]1N=C2c1ccc(Oc2ccccc2)cc1` [Compound 4, (−)-cis-8,9-Dimethoxy-6-(4-phenoxyphenyl)-1,2,3,4,4a,10b-hexahydrophenanthridine] are 110 to 115 °C and 7.52.
On the same counts, the results for `COc1cc2c(cc1OC)[C@@H]1CCCC[C@@H]1N=C2c1cccc(OCc2ccccc2)c1` [Compound 7, (−)-cis-8,9-Dimethoxy-6-(3-benzyloxyphenyl)-1,2,3,4,4a,10b-hexahydrophenanthridine] are 118 to 120 °C and 8.40.
In the same order, the values of `COC(=O)Cc1ccc(C2=N[C@H]3CCCC[C@H]3c3cc(OC)c(OC)cc32)cc1` [Compound 18, (−)-cis-8,9-Dimethoxy-6-(4-methoxycarbonylmethylphenyl)-1,2,3,4,4a,10b-hexahydrophenanthridine] are 124 to 125 °C and 7.49.
Turning to `COc1cc2c(cc1OC)[C@@H]1CCCC[C@@H]1N=C2c1ccc(C(=O)CC(C)C)cc1` [Compound 23, (−)-cis-8,9-Dimethoxy-6-[4-(3-methylbutyryl)phenyl]-1,2,3,4,4a,10b-hexahydrophenanthridine], the melting point was 114 to 117 °C. In addition, the “−log IC50, inhibition” value in the series on PDE4 stood at 7.5.
In the same order, the values of `COc1cc2c(cc1OC)[C@@H]1CCCC[C@@H]1N=C2c1ccc(C(=O)CC2CC2)cc1` [Compound 24, (−)-cis-8,9-Dimethoxy-6-[4-cyclopropylmethylcarbonylphenyl]-1,2,3,4,4a,10b-hexahydrophenanthridine] are 93 to 98 °C and 7.48.
In the same order, the values of `COc1cccc(C(=O)c2ccc(C3=N[C@H]4CCCC[C@H]4c4cc(OC)c(OC)cc43)cc2)c1` [Compound 30, (−)-cis-8,9-Dimethoxy-6-[4-(3-methoxybenzoyl)phenyl]-1,2,3,4,4a,10b-hexahydrophenanthridine] are 146 to 148 °C and 7.94.
In the same order, the values of `COc1cc2c(cc1OC)[C@@H]1CCCC[C@@H]1N=C2c1cccc(OCC2CC2)c1` [Compound 35, (−)-cis-8,9-Dimethoxy-6-(3-cyclopropylmethoxyphenyl)-1,2,3,4,4a,10b-hexahydrophenanthridine] are 54 to 61 °C and 7.43.
Regarding `CCOc1ccc(C2=N[C@H]3CCCC[C@H]3c3cc(OC)c(OC)cc32)cc1OCC1CC1` [Compound 38, (−)-cis-8,9-Dimethoxy-6-(3-cyclopropylmethoxy-4-ethoxyphenyl)-1,2,3,4,4a,10b-hexahydrophenanthridine], the “−log IC50, inhibition” value with PDE4 came to 7.47.
Still for that read-out and setting: as for `COc1cc2c(cc1OC)[C@@H]1CCCC[C@@H]1N=C2c1cc(OCC2CC2)cc(OCC2CC2)c1` [Compound 41, (−)-cis8,9-Dimethoxy-6-[3,5-bis(cyclopropylmethoxy)phenyl]-1,2,3,4,4a,10b-hexahydrophenanthridine], the figure is 8.03.
On the same count and under the same terms, as for `COc1cc2c(cc1OC)[C@@H]1CCCC[C@@H]1N=C2c1ccc(OC(F)F)c(OCC2CC2)c1` [Compound 42, (−)-cis-8,9-Dimethoxy-6-(3-cyclopropylmethoxy-4-difluoromethoxyphenyl)-1,2,3,4,4a,10b-hexahydrophenanthridine], the figure is 7.43.
In turn, `COc1cc2c(cc1OC)[C@@H]1CCCC[C@@H]1N=C2c1ccc(OC)c(N2CCCC2=O)c1` [Compound 47, (−)-cis-8,9-Dimethoxy-6-[4-methoxy-3-(2-oxopyrrolidin-1-yl)phenyl]-1,2,3,4,4a,10b-hexahydrophenanthridine] yielded a melting point of 147 to 152 °C. Also, the “−log IC50, inhibition” value in the series with PDE4 was 7.33.
The molecule `COc1cc2c(cc1OC)[C@@H]1CCCC[C@@H]1N=C2c1cccc(C(C)=O)c1` [Compound 49, (−)cis-8,9-Dimethoxy-6-(3-acetylphenyl)-1,2,3,4,4a,10b-hexahydrophenanthridine] came in with a melting point of 112.5 to 114 °C. Moreover, the “−log IC50, inhibition” value with PDE4 came to 7.17.
For `CCC(=O)c1ccc(C2=N[C@H]3CCCC[C@H]3c3cc(OC)c(OC)cc32)cc1` [Compound 50, (−)-cis-8,9-Dimethoxy-6-[4-propionylphenyl]-1,2,3,4,4a,10b-hexahydrophenanthridine], the “−log IC50, inhibition” value in the series on PDE4 was determined as 7.98.

These data come from patent US6476025B1, “Phenylphennanthridines with PDE-IV inhibiting activity” (Altana Pharma AG, priority 1999, dated 2002).
